# Tested on: androgen receptor (AR) in LNCaP and/or VCaP cells
# Test: Androgen Receptor ELISA assay (AR degradation)
# Format: cell-based
# Conditions: degradation of AR ELISA in LNCaP and/or VCaP cells; Table 2C; read-out: DC50 Code*
# Summary of the method: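 VCaP cells grown ≥3 days, then treated 5 h with compound in media containing 1 nM R1881 (10× stock). Cells lysed and AR quantified by sandwich ELISA (mouse AR detection Ab, HRP anti-mouse, TMB). DC50 and Dmax derived from AR degradation.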
row,SMILES,DC50 [nM]
1,"Cc1cc(O[C@H]2C(C)(C)[C@H](NC(=O)c3cnc(N4CCC(CCN5CC(Oc6ccc7c(c6)C(=O)N(C6CCC(=O)NC6=O)C7=O)C5)CC4)cn3)C2(C)C)cc(C)c1C#N (some centres unmarked) [compound 115, N-((1r,3r)-3-(4-cyano-3,5-dimethylphenoxy)-2,2,4,4-tetramethylcyclobutyl)-5-(4-(2-(3-((2-(2,6-dioxopiperidin-3-yl)-1,3-dioxoisoindolin-5-yl)oxy)azetidin-1-yl)ethyl)piperidin-1-yl)pyrazine-2-carboxamide]",< 1
2,"COCCN(CC1CCN(c2cnc(C(=O)N[C@H]3C(C)(C)[C@H](Oc4ccc(C#N)c(OC)c4)C3(C)C)cn2)CC1)[C@H]1C[C@H](Oc2ccc3c(c2)C(=O)N(C2CCC(=O)NC2=O)C3=O)C1 (some centres unmarked) [compound 116, N-((1r,3r)-3-(4-cyano-3-methoxyphenoxy)-2,2,4,4-tetramethylcyclobutyl)-5-(4-((((1r,3r)-3-((2-(2,6-dioxopiperidin-3-yl)-1,3-dioxoisoindolin-5-yl)oxy)cyclobutyl)(2-methoxyethyl)amino)methyl)piperidin-1-yl)pyrazine-2-carboxamide]",< 1
3,"Cc1cc(O[C@H]2C(C)(C)[C@H](NC(=O)c3cnc(N4CC(CN5CCC(Oc6ccc7c(c6)C(=O)N(C6CCC(=O)NC6=O)C7=O)CC5)C4)cn3)C2(C)C)cc(C)c1C#N (some centres unmarked) [compound 117, N-((1r,3r)-3-(4-cyano-3,5-dimethylphenoxy)-2,2,4,4-tetramethylcyclobutyl)-5-(3-((4-((2-(2,6-dioxopiperidin-3-yl)-1,3-dioxoisoindolin-5-yl)oxy)piperidin-1-yl)methyl)azetidin-1-yl)pyrazine-2-carboxamide]",< 1
4,"Cc1cc(O[C@H]2C(C)(C)[C@H](NC(=O)c3cnc(N4CC(CN[C@H]5C[C@H](Oc6ccc7c(c6)C(=O)N(C6CCC(=O)NC6=O)C7=O)C5)C4)cn3)C2(C)C)cc(C)c1C#N (some centres unmarked) [compound 118, N-((1r,3r)-3-(4-cyano-3,5-dimethylphenoxy)-2,2,4,4-tetramethylcyclobutyl)-5-(3-((((1r,3r)-3-((2-(2,6-dioxopiperidin-3-yl)-1,3-dioxoisoindolin-5-yl)oxy)cyclobutyl)amino)methyl)azetidin-1-yl)pyrazine-2-carboxamide]",< 1
5,"COCCN(CC1CCN(c2cnc(C(=O)N[C@H]3C(C)(C)[C@H](Oc4cc(C)c(C#N)c(C)c4)C3(C)C)cn2)CC1)[C@H]1C[C@H](Oc2ccc3c(c2)C(=O)N(C2CCC(=O)NC2=O)C3=O)C1 (some centres unmarked) [compound 119, N-((1r,3r)-3-(4-cyano-3,5-dimethylphenoxy)-2,2,4,4-tetramethylcyclobutyl)-5-(4-((((1r,3r)-3-((2-(2,6-dioxopiperidin-3-yl)-1,3-dioxoisoindolin-5-yl)oxy)cyclobutyl)(2-methoxyethyl)amino)methyl)piperidin-1-yl)pyrazine-2-carboxamide]",< 1
6,"CCc1c(O[C@H]2C[C@H](N(CC3CCN(c4cnc(C(=O)N[C@H]5C(C)(C)[C@H](Oc6ccc(C#N)c(Cl)c6)C5(C)C)cn4)CC3)C(C)C)C2)ccc2c1CN(C1CCC(=O)NC1=O)C2=O (some centres unmarked) [compound 120, N-((1r,3r)-3-(3-chloro-4-cyanophenoxy)-2,2,4,4-tetramethylcyclobutyl)-5-(4-((((1r,3r)-3-((2-(2,6-dioxopiperidin-3-yl)-4-ethyl-1-oxoisoindolin-5-yl)oxy)cyclobutyl) (isopropyl)amino)methyl)piperidin-1-yl)pyrazine-2-carboxamide]",< 1
7,"COCCN(CC1CCN(c2ccc(C(=O)N[C@H]3C(C)(C)[C@H](Oc4cc(C)c(C#N)c(C)c4)C3(C)C)nn2)CC1)[C@H]1C[C@H](Oc2ccc3c(c2)C(=O)N(C2CCC(=O)NC2=O)C3=O)C1 (some centres unmarked) [compound 121, N-((1r,3r)-3-(4-cyano-3,5-dimethylphenoxy)-2,2,4,4-tetramethylcyclobutyl)-6-(4-((((1r,3r)-3-((2-(2,6-dioxopiperidin-3-yl)-1,3-dioxoisoindolin-5-yl)oxy)cyclobutyl)(2-methoxyethyl)amino)methyl)piperidin-1-yl)pyridazine-3-carboxamide]",< 1
8,"COc1cc(O[C@H]2C(C)(C)[C@H](NC(=O)c3cnc(N4CC5(CC(CN(C(C)C)[C@H]6C[C@H](Oc7ccc8c(c7)C(=O)N(C7CCC(=O)NC7=O)C8=O)C6)C5)C4)cn3)C2(C)C)ccc1C#N (some centres unmarked) [compound 122, N-((1r,3r)-3-(4-cyano-3-methoxyphenoxy)-2,2,4,4-tetramethylcyclobutyl)-5-(6-((((1r,3r)-3-((2-(2,6-dioxopiperidin-3-yl)-1,3-dioxoisoindolin-5-yl)oxy)cyclobutyl) (isopropyl)amino)methyl)-2-azaspiro[3.3]heptan-2-yl)pyrazine-2-carboxamide]",< 1
9,"CC(C)N(CC1CCN(c2cnc(C(=O)N[C@H]3C(C)(C)[C@H](Oc4ccc(C#N)c(Cl)c4)C3(C)C)cn2)CC1)[C@H]1C[C@H](Oc2ccc3c(c2)C(=O)N(C2CCC(=O)NC2=O)C3)C1 (some centres unmarked) [compound 123, N-((1r,3r)-3-(3-chloro-4-cyanophenoxy)-2,2,4,4-tetramethylcyclobutyl)-5-(4-((((1r,3r)-3-((2-(2,6-dioxopiperidin-3-yl)-3-oxoisoindolin-5-yl)oxy)cyclobutyl) (isopropyl)amino)methyl)piperidin-1-yl)pyrazine-2-carboxamide]",< 1
10,"COc1cc(O[C@H]2C[C@H](N(CC3CCN(c4cnc(C(=O)N[C@H]5C(C)(C)[C@H](Oc6ccc(C#N)c(Cl)c6)C5(C)C)cn4)CC3)C(C)C)C2)cc2c1C(=O)N(C1CCC(=O)NC1=O)C2=O (some centres unmarked) [compound 124, N-((1r,3r)-3-(3-chloro-4-cyanophenoxy)-2,2,4,4-tetramethylcyclobutyl)-5-(4-((((1r,3r)-3-((2-(2,6-dioxopiperidin-3-yl)-7-methoxy-1,3-dioxoisoindolin-5-yl)oxy)cyclobutyl) (isopropyl)amino)methyl)piperidin-1-yl)pyrazine-2-carboxamide]",< 1
11,"CC1(C)[C@H](NC(=O)c2ccc(N3CCN([C@H]4CC[C@H](Oc5ccc6c(c5)C(=O)N(C5CCC(=O)NC5=O)C6=O)C4)CC3)cc2)C(C)(C)[C@H]1Oc1ccc(C#N)c(Cl)c1 (stereo partly drawn) [compound 125, N-((1r,3S)-3-(3-chloro-4-cyanophenoxy)-2,2,4,4-tetramethylcyclobutyl)-4-(4-((1S,3S)-3-((2-(2,6-dioxopiperidin-3-yl)-1,3-dioxoisoindolin-5-yl)oxy)cyclopentyl)piperazin-1-yl)benzamide]",< 1
12,"COCCN(CC1CCN(c2ccc(C(=O)N[C@H]3C(C)(C)[C@H](Oc4ccc(C#N)c(Cl)c4)C3(C)C)nn2)CC1)[C@H]1C[C@H](Oc2ccc3c(c2)C(=O)N(C2CCC(=O)NC2=O)C3=O)C1 (some centres unmarked) [compound 127, N-((1r,3r)-3-(3-chloro-4-cyanophenoxy)-2,2,4,4-tetramethylcyclobutyl)-6-(4-((((1r,3r)-3-((2-(2,6-dioxopiperidin-3-yl)-1,3-dioxoisoindolin-5-yl)oxy)cyclobutyl)(2-methoxyethyl)amino)methyl)piperidin-1-yl)pyridazine-3-carboxamide]",< 1
13,"Cc1cc(O[C@H]2C(C)(C)[C@H](NC(=O)c3ccc(N4CCC(CN(C(C)C)[C@H]5C[C@H](Oc6ccc7c(c6)C(=O)N(C6CCC(=O)NC6=O)C7=O)C5)CC4)cn3)C2(C)C)cc(C)c1C#N (some centres unmarked) [compound 128, N-((1r,3r)-3-(4-cyano-3,5-dimethylphenoxy)-2,2,4,4-tetramethylcyclobutyl)-5-(4-((((1r,3r)-3-((2-(2,6-dioxopiperidin-3-yl)-1,3-dioxoisoindolin-5-yl)oxy)cyclobutyl) (isopropyl)amino)methyl)piperidin-1-yl)picolinamide]",1 to 10
14,"COc1cc(O[C@H]2C(C)(C)[C@H](NC(=O)c3cnc(N4CC(CN(C(C)C)[C@H]5C[C@H](Oc6ccc7c(c6)C(=O)N(C6CCC(=O)NC6=O)C7=O)C5)C4)cn3)C2(C)C)ccc1C#N (some centres unmarked) [compound 130, N-((1r,3r)-3-(4-cyano-3-methoxyphenoxy)-2,2,4,4-tetramethylcyclobutyl)-5-(3-((((1r,3r)-3-((2-(2,6-dioxopiperidin-3-yl)-1,3-dioxoisoindolin-5-yl)oxy)cyclobutyl) (isopropyl)amino)methyl)azetidin-1-yl)pyrazine-2-carboxamide]",1 to 10
15,"Cc1cc(O[C@H]2C(C)(C)[C@H](NC(=O)c3cnc(N4CC(CN(C(C)C)[C@H]5C[C@H](Oc6ccc7c(c6)C(=O)N(C6CCC(=O)NC6=O)C7=O)C5)C4)cn3)C2(C)C)cc(C)c1C#N (some centres unmarked) [compound 131, N-((1r,3r)-3-(4-cyano-3,5-dimethylphenoxy)-2,2,4,4-tetramethylcyclobutyl)-5-(3-((((1r,3r)-3-((2-(2,6-dioxopiperidin-3-yl)-1,3-dioxoisoindolin-5-yl)oxy)cyclobutyl) (isopropyl)amino)methyl)azetidin-1-yl)pyrazine-2-carboxamide]",1 to 10
16,"Cc1cc(O[C@H]2C(C)(C)[C@H](NC(=O)c3ncc(N4CCC(CN(C(C)C)[C@H]5C[C@H](Oc6ccc7c(c6)C(=O)N(C6CCC(=O)NC6=O)C7=O)C5)CC4)cn3)C2(C)C)cc(C)c1C#N (some centres unmarked) [compound 132, N-((1r,3r)-3-(4-cyano-3,5-dimethylphenoxy)-2,2,4,4-tetramethylcyclobutyl)-5-(4-((((1r,3r)-3-((2-(2,6-dioxopiperidin-3-yl)-1,3-dioxoisoindolin-5-yl)oxy)cyclobutyl) (isopropyl)amino)methyl)piperidin-1-yl)pyrimidine-2-carboxamide]",1 to 10
17,"Cc1cc(O[C@H]2C(C)(C)[C@H](NC(=O)c3cnc(N4CC(CCN5CCC(Oc6ccc7c(c6)C(=O)N(C6CCC(=O)NC6=O)C7=O)CC5)C4)nc3)C2(C)C)cc(C)c1C#N (some centres unmarked) [compound 133, N-((1r,3r)-3-(4-cyano-3,5-dimethylphenoxy)-2,2,4,4-tetramethylcyclobutyl)-2-(3-(2-(4-((2-(2,6-dioxopiperidin-3-yl)-1,3-dioxoisoindolin-5-yl)oxy)piperidin-1-yl)ethyl)azetidin-1-yl)pyrimidine-5-carboxamide]",1 to 10

# Source: patent US20260053932A1, “COMPOUNDS AND METHODS FOR THE TARGETED DEGRADATION OF ANDROGEN RECEPTOR AND ASSOCIATED METHODS OF USE” (Arvinas Operations, Inc., priority 2020, published 2026)
